Legend:
[1] = Unbound teicoplanin plasma concentration, ultrafiltration and UPLC-MS/MS; type: in vivo, human; conditions: plasma ultrafiltrate (Centrifree, 37°C), 103 observations, 72 patients, daily dose 50–1,600 mg i.v.
Experimental: (§1) However, prescribed dosing regimens were at the discretion of treating physicians based on the severity of the patient’s disease and the standard dosing regimen was not always followed. The daily dose range of patients included in this study was 50–1,600 mg.
(§2) Blood samples were typically collected within 30 min to 1 h preceding the 4th dose and the 6th dose, and depending on the actual clinical situation, blood samples might be taken at other time for TDM during the treatment. The Plasma samples were placed in a Centrifree® ultrafiltration device and placed in a 37°C water bath for 30 min, followed by centrifugation at 37°C, 1,500 × g for 30 min, and the ultrafiltrate was directly used for the determination of unbound concentration by ultra-performance liquid chromatography-tandem mass spectrometry (UPLC-MS/MS) method. […] The average relative recovery ratio was 97.9%, and the matrix effect factor was 0.97. Details of blood handling, storage and measurement have been described previously ([Fu et al., 2020]).

[2] = ref Pauluzzi et al., 1987; cited from earlier work
Source text: Previous studies have shown that adverse events inc ...

[3] = Population pharmacokinetic (NONMEM) model of unbound teicoplanin in Chinese adult patients; type: in vivo, human
Experimental: The pregnant female patients, hemodialysis patients, disseminated intravascular coagulation patients, and continuous renal replacement therapy patients were excluded.
as §1, §2
The PopPK modeling was performed using NONMEM (non-linear mixed effects modeling, v7.2, Globomax Corp, United States), and Wings for NONMEM (v6.1, Nick Holford, University of Auckland, New Zealand) was used as an auxiliary software for NONMEM execution. R (v3.6.1, Saik Urien, U.R.C. Paris Centre, Hopital Tarnier, France) was used for exploratory data analysis, data assembly, and graphical presentation of modeling and simulation results.
The parameter estimation method for PopPK model was FOCEI (first order conditional estimation with η-ε interaction option). The inter-individual variability (IIV) of the parameters were estimated using exponential random effects. θi=θ∙e^ηi (5) Where θi is the estimated parameter value of the individual i, θ represents the typical population parameter, and ηi (IIV) is assumed to follow the normal distribution with mean of 0 and variance of ω^2 and was estimated during model fitting.
The additive, proportional, and mixed residual error models were compared separately, and finally the mixed residual error model was selected for data fitting.
Covariate modeling analysis was used to explore the source of variability.
The stepwise covariate modeling approach was used to establish the covariate model in this analysis. During the forward selection step, all covariates were added to the PK parameters in the base model one by one. Covariates were screened based on the changes in objective function values (OFV) and graphical evaluation. The covariate with a significant effect (p < 0.05, e.g., df = 1, ΔOFV ≥ 3.84) would be added to the basic model to build a full model. Based on the full model, the existing covariates were deleted one by one as the backward elimination step. For each deleted covariate, the increase in OFV should be ≥ 10.83 (p < 0.001, df = 1), otherwise, this covariate should be excluded from the final model.
Continuous covariates (e.g., WT) were added to the model according to the following equation. θi=θTV×(covi/covmedian)^θx (7) Where θi is the parameter value of the ith individual; θTV is the population typical value of PK parameters; covi is the covariate value of the ith individual; covmedian is the median value of this covariate; θx is the influence coefficient of the covariate on the parameters.
Categorical covariates (e.g., gender) were added to the model according to the following equations: θi=θTV+θx,cov=xl if Cov=Xl (8) θi=θTV if Cov=X0 (9) Where θx,cov=xl is the change in a parameter when covariate X is at level l compared with the reference level (0).
The performance and stability of the final model were estimated using non-parametric bootstrap. 1,000 datasets generated by random sampling were evaluated. […]

[4] = system: serum albumin; conditions: ref Gao et al., 2020; cited from earlier work
Experimental: In this study, the protein binding ratio was calculated as the average value of 92.5%.

[5] = non-parametric bootstrap, 1,000 datasets

## teicoplanin
[1]
  Unbound teicoplanin concentrations, range: 0.4 to 4.4 µg/mL
[1]; mostly trough, SD
  Unbound teicoplanin concentrations, mean ± SD: 1.5 ± 0.9 µg/mL
[2]
  total Ctrough above which thrombocytopenia was more common: > 60 µg/mL
[3]; [5]
  θALB, bootstrap median: 1.55 g/L
  θCL, bootstrap median: 11.38 L/h
  θV, bootstrap median: 822 L
  θeGFR, bootstrap median: 0.501 mL/min
[3]; unbound teicoplanin, one-compartment model, 72 patients, 103 observations, at ALB 32
  θV, population typical value of the volume of distribution (NONMEM estimate): 811 L
[3]; unbound teicoplanin, one-compartment, first-order elimination, 72 Chinese adult patients, 103 observations, i.v. infusion, at eGFR 84
  θCL, population typical value of clearance (NONMEM estimate): 11.7 L/h
[4]
  bound to serum albumin (protein binding ratio): 90%–95%
